Test results taken from publication PMC6270026, “Antibacterial and Herbicidal Activity of Ring-Substituted 2-Hydroxynaphthalene-1-carboxanilides” (Molecules, 2013).
pIC50: −log10 of the molar value. Converted amounts (≈) assume the structure as drawn. Like-named read-outs stand apart in the source and are kept apart here.

Columns and labels:
[1] = parameters: method as in PMID 23884130; conditions: 3-hydroxynaphthalene-2-carboxanilide series; cited from earlier work
[2] = Lipophilicity determination by RP-HPLC (capacity factor log k); format: physicochemical; conditions: isocratic, MeOH 60%/H2O 40%, C18
Description: A HPLC system Agilent 1200 equipped with DAD detector (Agilent, Santa Clara, CA, USA) was used. A chromatographic column Symmetry® C18 5 μm, 4.6 × 250 mm, Part No. WAT054275, (Waters Corp., Milford, MA, USA) was used. The HPLC separation process was monitored and evaluated by EZChrom Elite software ver. 3.3.2 (Agilent). Isocratic elution by a mixture of MeOH p.a. (60%) and H2O-HPLC Mili-Q grade (40%) as a mobile phase was used. The total flow of the column was 1.0 mL/min, injection 20 μL, column temperature 40 °C and sample temperature 10 °C. The detection wavelength 210 nm was chosen. The KI methanolic solution was used for the dead time (tD) determination. Retention times (tR) were measured in minutes. The capacity factors k were calculated according to formula k = (tR − tD)/tD, where tR is the retention time of the solute, whereas tD denotes the dead time obtained using an unretained analyte. Log k, calculated from the capacity factor k, is used as the lipophilicity index converted to log P scale.

[3] = tested on: spinach chloroplasts (photosystem II); experiment: Chlorophyll a and aromatic amino acids fluorescence in spinach chloroplasts; format: biochemical, Spinacia oleracea L.
Description: The fluorescence emission spectra of chlorophyll a (Chla) and aromatic amino acids (AAA) in spinach chloroplasts were recorded on fluorescence spectrophotometer F-2000 (Hitachi, Tokyo, Japan) using excitation wavelength λex = 436 nm for monitoring fluorescence of Chla and λex = 275 nm for monitoring AAA fluorescence, excitation slit 20 nm and emission slit 10 nm. The samples were kept in the dark for 2 min before measuring. The phosphate buffer used for dilution of the chloroplast suspension was the same as described above. Due to low aqueous solubility the compounds were added to chloroplast suspension in DMSO solution. The DMSO concentration in all samples was the same as in the control (10%). The chlorophyll concentration in chloroplast suspension was 10 mg/L.

[4] = tested on: human monocytic leukemia THP-1 cells; experiment: In vitro cytotoxicity assay (LDH); format: cell-based; conditions: treatment with 20 µmol/L, 24 h
Description: Human monocytic leukemia THP-1 cells were obtained from the European Collection of Cell Cultures (ECACC, Salisbury, UK; Methods of characterization: DNA Fingerprinting (Multilocus probes) and isoenzyme analysis). These cells were routinely cultured in RPMI 1640 (Lonza, Verviers, Belgium) medium supplemented with 10% fetal bovine serum (FBS, Sigma-Aldrich), 2% L-glutamine, 1% penicillin and streptomycin (Lonza, Verviers, Belgium) at 37 °C with 5% CO2. Cells were passaged at approximately 1 week intervals. Cells were routinely tested for the absence of mycoplasma (Hoechst 33258 staining method). The tested compounds were dissolved in DMSO (Sigma-Aldrich) and added in five increasing concentrations to the cell suspension in the culture medium. The maximum concentration of DMSO in the assays never exceeded 0.1%. Subsequently, the cells were incubated for 24 h at 37 °C with 5% CO2 to various compound concentrations ranging from 0.37 to 20 μmol/L in RPMI 1640 medium. Cell toxicity was determined using a Cytotoxicity Detection Kit^PLUS Lactate dehydrogenase (LDH) assay kit (Roche Diagnostics, Mannheim, Germany) according to the manufacturer’s instructions, as described previously. […] All data were evaluated using GraphPad Prism 5.00 software (GraphPad Software, San Diego, CA, USA).

[5] = tested on: photosynthetic electron transport (PET) in spinach chloroplasts; experiment: Inhibition of photosynthetic electron transport (PET) in spinach chloroplasts; format: biochemical, Spinacia oleracea L.; conditions: DCPIP photoreduction
Description: Chloroplasts were prepared from spinach (Spinacia oleracea L.) according to Masarovicova and Kralova. The inhibition of photosynthetic electron transport (PET) in spinach chloroplasts was determined spectrophotometrically (Genesys 6, Thermo Electron Scientific Instruments, Madison, WI, USA), using an artificial electron acceptor 2,6-dichlorophenol-indophenol (DCPIP) according to Kralova et al., and the rate of photosynthetic electron transport was monitored as a photoreduction of DCPIP. The measurements were carried out in phosphate buffer (0.02 mol/L, pH 7.2) containing sucrose (0.4 mol/L), MgCl2 (0.005 mol/L) and NaCl (0.015 mol/L). The chlorophyll content was 30 mg/L in these experiments and the samples were irradiated (~100 W/m^2 with 10 cm distance) with a halogen lamp (250 W) using a 4 cm water filter to prevent warming of the samples (suspension temperature 22 °C). The studied compounds were dissolved in DMSO due to their limited water solubility. […] The inhibitory efficiency of the studied compounds was expressed by IC50 values, i.e., by molar concentration of the compounds causing 50% decrease in the oxygen evolution rate relative to the untreated control.

[6] = tested on: M. kansasii DSM 44162; experiment: In vitro antimycobacterial evaluation (broth dilution MIC); format: cell-based; conditions: Mycobacterium kansasii, DSM44162, 168 h; M. kansasii DSM 44162, 7 days, 37 °C
[7] = tested on: M. smegmatis ATCC 700084; experiment: as above; format: cell-based, Mycobacterium smegmatis; conditions: Mycolicibacterium smegmatis, ATCC700084, 72 h; M. smegmatis ATCC 700084, 3 days, 37 °C
[8] = tested on: Mycobacterium marinum CAMP 5644; experiment: as above; format: cell-based; conditions: for MIC: Mycobacterium marinum, CAMP5644, 504 h, M. marinum CAMP 5644, 21 days, 28 °C
[9] = tested on: Mycobacterium avium subsp. paratuberculosis (CIT03); experiment: In vitro antimycobacterial evaluation (alamarBlue MIC); format: cell-based; conditions: 264 h, M. avium paratuberculosis CIT03, 11 days, 37 °C
Description: A well characterised clinical isolate of Mycobacterium avium subsp. paratuberculosis (CIT03) was grown in Middlebrook broth (MB), supplemented with Oleic-Albumin-Dextrose-Catalase supplement (OADC, Becton, Dickinson & Comp., Franklin Lakes, NJ, USA) and mycobactin J (2 µg/mL). Identification of this isolate was performed using biochemical and molecular protocols. At log phase growth, a culture sample (10 mL) was centrifuged at 15,000 rpm/20 min using a bench top centrifuge (Model CR 4-12, Jouan Inc., Winchester, VA, USA). Following removal of the supernatant, the pellet was washed in fresh Middlebrook 7H9GC broth and re-suspended in fresh supplemented MB (10 mL). The turbidity was adjusted to match McFarland standard No. 1 (3 × 10^8 cfu) with MB broth. A further 1:20 dilution of the culture was then performed in MB broth. The antimicrobial susceptibility of the mycobacterial species was investigated in a 96-well plate format. In these experiments, sterile deionised water (300 µL) was added to all outer-perimeter wells of the plates to minimize evaporation of the medium in the test wells during incubation. Each evaluated compound (100 µL) was incubated with each of the mycobacterial species (100 µL). Dilutions of each compound were prepared in duplicate. For all synthesized compounds, final concentrations ranged from 1,000 µg/mL to 8 µg/mL. All compounds were prepared in DMSO and subsequent dilutions were made in supplemented MB. The plates were sealed with parafilm and incubated at 37 °C, for 11 days in the case of M. avium paratuberculosis. Following incubation, a 10% addition of alamarBlue (AbD Serotec, Kidlington, UK) was mixed into each well and readings at 570 nm and 600 nm were taken, initially for background subtraction and subsequently after 24 h re-incubation. The background subtraction is necessary for strongly coloured compounds, where the colour may interfere with the interpretation of any colour change. For non-interfering compounds, a blue colour in the well was interpreted as an absence of growth and a pink colour was scored as growth. The minimum inhibitory concentrations (MICs) were initially defined as the lowest concentration which prevented a visual colour change from blue to pink.
The MICs were defined as the lowest concentration of the compound at which no visible bacterial growth was observed. The MIC value is routinely and widely used in bacterial assays and is a standard detection limit according to the Clinical and Laboratory Standards Institute (CLSI). Isoniazid (Sigma-Aldrich) was used as reference antimycobacterial drug.

[10] = tested on: methicillin-resistant Staphylococcus aureus SA 3202; experiment: In vitro antibacterial susceptibility testing (broth dilution MIC); format: cell-based; conditions: MRSA, clinical isolate SA 3202, 24 h, 37 °C, read-out: MIC MRSA 3202
Description: (§1) The synthesized compounds were evaluated for in vitro antibacterial activity against representatives of multidrug-resistant bacteria, clinical isolates of methicillin-resistant Staphylococcus aureus (MRSA) 63718, SA 630 and SA 3202 that were obtained from the National Institute of Public Health, Prague, Czech Republic. Staphylococcus aureus ATCC 29213 was used as a reference and quality control strain. Ampicillin (Sigma-Aldrich) was used as the standard. Prior to testing, each strain was passaged onto nutrient agar (Oxoid, Hampshire, UK) with 5% of bovine blood, and bacterial inocula were prepared by suspending a small portion of bacterial colony in sterile phosphate buffered saline (pH 7.2–7.3). The cell density was adjusted to 0.5 McFarland units using a densitometer (Densi-La-Meter, LIAP, Riga, Latvia). The final inoculum was made by 1:20 dilution of the suspension with the Mueller-Hinton broth (MH broth). […] The final concentrations of the evaluated compounds ranging from 256 μg/mL to 0.008 μg/mL. The broth dilution micro-method modified according to NCCLS guidelines in MH broth was used to determine the minimum inhibitory concentration (MIC). Drug-free controls, sterility controls and controls consisted of MH broth and DMSO alone were included. The determination of results was performed visually after 24 h of static incubation in the darkness at 37 °C in an aerobic atmosphere. The MICs were defined as the lowest concentration of the compound at which no visible bacterial growth was observed.

[11] = tested on: methicillin-resistant Staphylococcus aureus (MRSA) 63718; experiment: as above; format: cell-based; conditions: clinical isolate MRSA 63718, 24 h, 37 °C
Description: as §1

[12] = tested on: Staphylococcus aureus ATCC 29213; experiment: as above; format: cell-based; conditions: ATCC29213; Staphylococcus aureus ATCC 29213, 24 h, 37 °C
Description: as §1

[13] = tested on: methicillin-resistant Staphylococcus aureus SA 630; experiment: as above; format: cell-based; conditions: MRSA, clinical isolate SA 630, 24 h, 37 °C
Description: as §1

Row | SMILES | log k [1] | log k [2] | aromatic amino acids (AAA) fluorescence at 334 nm ([3]; c = 0.012-0.117 mmol/L, λex 275 nm) | chlorophyll a fluorescence emission band at 686 nm ([3]; c = 0.059-0.468 mmol/L, λex 436 nm) | lethal effect on THP-1 cells [4] | pIC50 [5] | MIC [6] [µM] | MIC [7] [µM] | MIC [8] [µM] | MIC [9] [µM] | MIC [10] [µM] | MIC [11] [µM] | MIC [12] [µM] | MIC [13] [µM] | fold higher activity against M. marinum than isoniazid ([8]; ratio of MIC to isoniazid)
1 | O=C(c1cc(O)cc2ccccc12)N(c1ccccc1)c1ccccc1 [3-hydroxy-N-phenylnaphthalene-1-carboxanilide] | 0.6310 | – | – | – | – | – | – | – | – | – | – | – | – | – | –
2 | O=C(Nc1ccccc1)c1c(O)ccc2ccccc12 [Compound 1, 2-Hydroxy-N-phenylnaphthalene-1-carboxamide] | – | 1.3016 | strong decline | decreased intensity | did not lead to significant lethal effects | 4.54 | 15.2 (≈ 4 µg/mL) | 486 (≈ 128 µg/mL) | 60.7 (≈ 16 µg/mL) | 950 (≈ 250 µg/mL) | – | – | – | – | –
3 | O=C(Nc1ccccc1Br)c1c(O)ccc2ccccc12 [Compound 6a, N-(2-bromophenyl)-2-hydroxynaphthalene-1-carboxamide] | – | 0.9509 | – | – | – | 4.28 | 93.5 (≈ 32 µg/mL) | > 748 | > 748 | 731 (≈ 250 µg/mL) | > 748 | > 748 | > 748 | > 748 | –
4 | O=C(Nc1cccc(Br)c1)c1c(O)ccc2ccccc12 [Compound 6b, N-(3-bromophenyl)-2-hydroxynaphthalene-1-carboxamide] | – | 0.8595 | – | – | – | 4.21 | 46.7 (≈ 16 µg/mL) | > 748 | > 748 | 731 (≈ 250 µg/mL) | > 748 | > 748 | > 748 | > 748 | –
5 | O=C(Nc1ccc(Br)cc1)c1c(O)ccc2ccccc12 [Compound 6c, N-(4-bromophenyl)-2-hydroxynaphthalene-1-carboxamide] | – | 0.8790 | – | – | – | 3.99 | 93.5 (≈ 32 µg/mL) | 187 (≈ 64 µg/mL) | 187 (≈ 64 µg/mL) | 175 (≈ 59.9 µg/mL) | 94.1 (≈ 32.2 µg/mL) | 187 (≈ 64 µg/mL) | 47 (≈ 16.1 µg/mL) | 47 (≈ 16.1 µg/mL) | –
6 | O=C(Nc1ccc(C(F)(F)F)cc1)c1c(O)ccc2ccccc12 [Compound 7c, 2-Hydroxy-N-(4-trifluoromethylphenyl)naphthalene-1-carboxamide] | – | 0.9994 | – | – | – | 4.54 | 23.3 (≈ 7.72 µg/mL) | > 748 | > 748 | 731 (≈ 242 µg/mL) | 47 (≈ 15.6 µg/mL) | 94 (≈ 31.1 µg/mL) | > 748 | 94 (≈ 31.1 µg/mL) | –
7 | O=C(Nc1ccccc1[N+](=O)[O-])c1c(O)ccc2ccccc12 [Compound 8a, 2-Hydroxy-N-(2-nitrophenyl)naphthalene-1-carboxamide] | – | 0.8501 | – | – | did not lead to significant lethal effects | 3.92 | 51.9 (≈ 16 µg/mL) | – | 104 (≈ 32.1 µg/mL) | 195 (≈ 60.1 µg/mL) | 52 (≈ 16 µg/mL) | – | – | 104 (≈ 32.1 µg/mL) | –
8 | O=C(Nc1cccc([N+](=O)[O-])c1)c1c(O)ccc2ccccc12 [Compound 8b, 2-Hydroxy-N-(3-nitrophenyl)naphthalene-1-carboxamide] | – | 0.9187 | – | – | did not lead to significant lethal effects | 4.06 | 104 (≈ 32.1 µg/mL) | – | ~52 (≈ 16 µg/mL) | 405 (≈ 125 µg/mL) | – | – | – | – | about 9 fold
